# From ChEMBL document CHEMBL1201862, “PubChem BioAssay data set” (2004)
# Active and inactive are the calls of the source. No stated cut-off is given here; in the data, actives have a measured IC50 and inactives only a lower limit.
# Target: T1, Caspase-3 (Homo sapiens, UniProt P42574);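 further: Dose-response selectivity test against caspase-3 for candidate inhibitors of sentrin-specific proteases (SENPs)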
# T1 sequence (P42574 whole entry): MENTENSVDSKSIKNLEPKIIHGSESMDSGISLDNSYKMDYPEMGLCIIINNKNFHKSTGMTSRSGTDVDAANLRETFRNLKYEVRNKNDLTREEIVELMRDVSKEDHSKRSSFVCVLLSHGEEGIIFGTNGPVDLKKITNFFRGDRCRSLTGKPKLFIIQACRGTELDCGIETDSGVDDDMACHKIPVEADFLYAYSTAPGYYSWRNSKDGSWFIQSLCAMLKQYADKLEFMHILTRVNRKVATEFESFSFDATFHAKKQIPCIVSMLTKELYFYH
# Type: functional
row,Compound,IC50
1,Nc1ccc(Br)c2cccnc12,10.4 µM (active)
2,Cc1ccc(C(=O)c2c(C)oc3c2C(=O)C(=O)c2ccccc2-3)cc1,29.1 µM (active)
3,O=C1C(O)=C/C(=N\c2ccccc2O)c2ccccc21,8.23 µM (active)
4,Cc1cnc(NC(=O)c2sc3ccccc3c2Cl)s1,6.67 µM (active)

# Target: T2, Sentrin-specific protease 7 (Homo sapiens, UniProt Q9BQF6);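 further: Luminescence-based dose-response confirmation of ultra-high-throughput screening hits, measuring inhibition of SENP7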
# T2 sequence (Q9BQF6 whole entry): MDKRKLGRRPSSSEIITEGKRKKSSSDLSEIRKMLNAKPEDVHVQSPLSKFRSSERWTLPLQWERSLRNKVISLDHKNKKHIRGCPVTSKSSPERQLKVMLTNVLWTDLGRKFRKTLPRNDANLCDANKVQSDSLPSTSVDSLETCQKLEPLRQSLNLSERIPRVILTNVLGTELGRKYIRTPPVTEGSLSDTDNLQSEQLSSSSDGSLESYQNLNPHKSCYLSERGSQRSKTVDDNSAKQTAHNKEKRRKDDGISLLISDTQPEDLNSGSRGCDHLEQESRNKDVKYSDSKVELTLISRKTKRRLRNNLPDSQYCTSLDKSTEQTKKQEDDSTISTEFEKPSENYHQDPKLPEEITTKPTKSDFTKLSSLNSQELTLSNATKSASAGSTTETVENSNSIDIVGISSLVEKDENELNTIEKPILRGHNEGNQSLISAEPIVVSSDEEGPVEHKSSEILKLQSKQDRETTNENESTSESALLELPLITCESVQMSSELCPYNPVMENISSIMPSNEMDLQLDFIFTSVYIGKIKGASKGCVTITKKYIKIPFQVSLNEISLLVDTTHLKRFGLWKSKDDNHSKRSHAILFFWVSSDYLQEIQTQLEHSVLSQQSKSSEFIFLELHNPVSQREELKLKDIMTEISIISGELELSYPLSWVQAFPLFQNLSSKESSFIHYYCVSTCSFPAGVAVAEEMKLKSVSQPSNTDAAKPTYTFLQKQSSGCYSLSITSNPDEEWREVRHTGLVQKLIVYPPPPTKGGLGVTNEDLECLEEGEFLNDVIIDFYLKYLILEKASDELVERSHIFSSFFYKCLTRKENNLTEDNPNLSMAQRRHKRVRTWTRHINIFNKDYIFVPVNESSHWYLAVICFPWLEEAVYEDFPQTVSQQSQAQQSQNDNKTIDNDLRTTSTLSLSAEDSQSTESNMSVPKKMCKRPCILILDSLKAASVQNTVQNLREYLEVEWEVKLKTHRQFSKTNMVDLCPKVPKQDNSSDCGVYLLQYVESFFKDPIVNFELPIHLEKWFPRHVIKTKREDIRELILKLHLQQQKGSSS
# Type: functional
row,Compound,IC50
1,Nc1ccc(Br)c2cccnc12,9.77 µM (active)
2,Cc1ccc(C(=O)c2c(C)oc3c2C(=O)C(=O)c2ccccc2-3)cc1,6.7 µM (active)
3,O=C1C(O)=C/C(=N\c2ccccc2O)c2ccccc21,5.84 µM (active)
4,Cc1cnc(NC(=O)c2sc3ccccc3c2Cl)s1,2.6 µM (active)

# Target: T3, Sentrin-specific protease 6 (Homo sapiens, UniProt Q9GZR1);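 further: Luminescence-based dose-response confirmatory assay of SENP6 inhibition, following up an ultra-high-throughput screen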
# T3 sequence (Q9GZR1 whole entry): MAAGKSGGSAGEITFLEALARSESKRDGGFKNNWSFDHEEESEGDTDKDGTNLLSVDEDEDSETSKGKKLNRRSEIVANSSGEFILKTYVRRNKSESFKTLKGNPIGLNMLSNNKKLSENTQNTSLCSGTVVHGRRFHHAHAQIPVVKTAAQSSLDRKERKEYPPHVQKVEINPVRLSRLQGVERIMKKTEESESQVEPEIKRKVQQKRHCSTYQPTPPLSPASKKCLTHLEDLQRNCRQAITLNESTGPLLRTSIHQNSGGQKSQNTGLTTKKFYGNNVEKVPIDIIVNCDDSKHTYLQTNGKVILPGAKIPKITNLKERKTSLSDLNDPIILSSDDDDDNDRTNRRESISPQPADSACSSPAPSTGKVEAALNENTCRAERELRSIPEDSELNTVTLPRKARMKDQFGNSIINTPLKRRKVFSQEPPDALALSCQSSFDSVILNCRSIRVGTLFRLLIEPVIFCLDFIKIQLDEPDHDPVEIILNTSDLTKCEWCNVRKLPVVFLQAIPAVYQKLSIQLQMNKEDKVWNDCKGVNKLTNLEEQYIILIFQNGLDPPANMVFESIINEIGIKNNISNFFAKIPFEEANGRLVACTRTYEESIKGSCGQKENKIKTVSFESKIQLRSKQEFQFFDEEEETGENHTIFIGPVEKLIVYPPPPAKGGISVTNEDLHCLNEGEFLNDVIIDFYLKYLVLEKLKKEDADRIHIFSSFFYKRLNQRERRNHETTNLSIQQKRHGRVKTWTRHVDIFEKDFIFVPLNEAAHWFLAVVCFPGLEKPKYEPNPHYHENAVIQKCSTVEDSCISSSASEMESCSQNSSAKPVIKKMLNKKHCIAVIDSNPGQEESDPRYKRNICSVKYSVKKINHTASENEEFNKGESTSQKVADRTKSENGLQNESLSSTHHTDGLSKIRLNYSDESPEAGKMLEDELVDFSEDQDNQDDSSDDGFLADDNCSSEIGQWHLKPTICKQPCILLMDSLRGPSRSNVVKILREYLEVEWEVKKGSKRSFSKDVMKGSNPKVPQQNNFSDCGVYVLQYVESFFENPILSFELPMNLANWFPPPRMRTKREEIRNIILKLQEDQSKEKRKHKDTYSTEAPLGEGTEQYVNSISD
# Type: functional
row,Compound,IC50
1,Nc1ccc(Br)c2cccnc12,7.46 µM (active)
2,Cc1ccc(C(=O)c2c(C)oc3c2C(=O)C(=O)c2ccccc2-3)cc1,4.76 µM (active)
3,O=C1C(O)=C/C(=N\c2ccccc2O)c2ccccc21,2.95 µM (active)
4,Cc1cnc(NC(=O)c2sc3ccccc3c2Cl)s1,> 100 µM (inactive)
